One test deals with C57B/J6 mice. Description: BRB breakdown in mice after intravitreal VEGF, quantitated with [3H]-mannitol tracer. It is filed as in vivo. From the text:
Intraperitoneally administered radiolabeled tracer can be used to quantitate BRB breakdown in mice exposed to vascular endothelial growth factor (VEGF). This technique is particularly advantageous with neonatal mice because of the technical difficulty involved with intravascular injections. Also, the comparison of retinas from injected and control eyes to tissues without a blood-tissue barrier corrects for variations in the amount of isotope injected or absorbed into the circulation.
Ten six- to seven-week-old C57B/J6 mice (Jackson Labs, Bar Harbor, Me.) are weighed to determine the proper dosage of anesthesia and tracer required. Mice are anesthetized with a solution containing 25 mg/kg ketamine (Ketaset; Fort Dodge Animal Health, Fort Dodge, Iowa) and 4 mg/kg rompun (Tranquived; Vedco, St. Joseph, Mo.) diluted 1:10 in saline prior to injection. Five mice are subjected to gavage with 50 mg/kg N-benzoyl staurosporine for three days prior to intravitreal administration of VEGF; the other five mice are subjected to gavage with vehicle.
Tropicamide (1%) is used to dilate the pupils of anesthetized mice. Under a dissecting microscope, a Harvard injector (PLI 100) is used with a glass pipet pulled to a diameter of 13-20 μm to inject 1 μl of saline containing VEGF (R&D Systems, Minneapolis, Minn.). The eyes are entered posterior to the limbus, directing the pipet toward the optic nerve. The solution is then deposited just in front of the retina without inflicting any damage to the lens. […]
One ml NCSII (Amersham, Chicago, Ill.) solubilizing solution is added to each vial and the vials are incubated overnight in a 50° C. water bath. […] The specimens are counted on a Wallac 1409 Liquid Scintillation Counter (Gaithersburg, :Md.).
The counts per mg tissue are determined for treated (with N-benzoyl staurosporine) and untreated retina, lung, and kidney. Ratios of these values for treated or untreated retina/lung or kidney and for lung/kidney are calculated. […]

In a further test the test system is C57BL/6J mice. Description: PG-induced breakdown of the BRB in mice after intraocular injection of a vasopermeability factor. The conditions noted are these: 50 mg/kg/day by gavage for 3 days, then intraocular PGE1 or PGE2 10^-5 M. Format: in vivo. On the procedure: Six to seven week old male C57BL/6J mice are treated in accordance with the ARVO resolution on the care of animals in research. Mice are treated by gavage with vehicle or vehicle containing 50 mg/kg/day of PKC412, PTK787, SU1498, or Gleevec. After 3 days of treatment, mice are given an intraocular injection of 1 μl of vehicle containing a vasopermeability factor or vehicle alone.
Mice are anesthetized with 25 mg/kg of ketamine and 4 mg/kg of xylazine, pupils are dilated with 1% tropicamide. Intraocular injections are performed as previously described with a Harvard pump microinjection apparatus and pulled glass micropipets. Each micropipet is calibrated to deliver 1 μl of vehicle upon depression of a foot switch. […] Some mice are used for quantitative measurement of BRB breakdown using [3H]mannitol and in others leakage of albumin through retinal vessels is assessed by Western blots or immunohistochemistry.
Six or 24 hours after intraocular injections, mice are given an intraperitoneal injection of 1 μCi / gram body weight of [3H]mannitol (New England Nuclear, Boston, Mass.). […] The vials are weighed and the tissue weights are recorded. […] Radioactivity is counted with a Wallac 1409 Liquid Scintillation Counter (Gaithersburg, Md.). […]

[1] abbreviates: mice, 50 mg/kg by gavage for three days before intravitreal VEGF 10^-6 M, [3H]-mannitol at 6 hours.

Each structure is given as a SMILES string.

For the compound `CO[C@@H]1[C@H](N(C)C(=O)c2ccccc2)C[C@H]2O[C@]1(C)n1c3ccccc3c3c4c(c5c6ccccc6n2c5c31)C(=O)NC4` [N-benzoyl staurosporine], in the test on C57B/J6 mice (VEGF-injected mice given 50 mg/kg N-benzoyl staurosporine by gavage for three days, compared to vehicle-gavaged VEGF-injected mice), the “leakage of radioactive tracer out of the retinal blood vessels” value is given as “significantly less leakage”. In addition, in the test on C57B/J6 mice (setting [1]), the retina/kidney ratio is listed as 0.3881±0.0436 and the “retina/lung ratio (cpm per mg of retina/cpm per mg of lung)” value was 0.6326±0.0656. In the test with C57BL/6J mice, the “PG-induced breakdown of the BRB” value was “reduces PG-induced breakdown of the BRB”.
In the case of `Clc1ccc(Nc2nnc(Cc3ccncc3)c3ccccc23)cc1` [PTK787, reference compound], the “PG-induced breakdown of the BRB” value with C57BL/6J mice is recorded as “not”.

The values are drawn from patent US20030236246A1, “Method for decreasing capillary permeability in the retina” (priority 2002, published 2003).
